Patent US9226929B2, “Pharmaceutically active disubstituted triazine derivatives” (Bayer Intellectual Property GMBH, priority 2011, dated 2016)

Legend:
CDK9/Cyclin T1 = target: T1, CDK9/Cyclin T1 (Homo sapiens, UniProt P50750); assay: LanthaScreen Eu Kinase Binding Assay, CDK9/Cyclin T1; details: tracer 236, read-out: CDK9/Cyclin T1 (activity range), Kd
T1 construct: His; purchased Invitrogen
Protocol: (§1) This protocol describes how the LanthaScreen Eu Kinase Binding Assay was performed to determine dissociation constants (Kd) of compounds of general formula (I) and CDK/Cyclin complexes. The principle behind this assay is based upon the binding and displacement of an Alexa Fluor 647-labeled tracer, which binds to the active site of kinases. Binding of the tracer to the kinase is detected using a Eu-labeled antibody. Simultaneous binding of both the tracer and antibody to the kinase gives rise to a FRET-signal. Binding of an inhibitor to the kinase competes for binding with the tracer, resulting in a loss of FRET.
(§2) The compounds of general formula (I) summarized in Table 1 were diluted from a 10 mM DMSO stock solution 1:10 in a total volume of 15 μL DMSO. This compound predilution was then serial diluted 1:3 over 8 steps in DMSO and briefly spun down. Each compound solution was now diluted 1:33.33 in kinase buffer (HEPES: 20 mM, pH: 8.0; MgCl2: 10 mM; DTT: 1 mM; Brij-35: 0,01%), mixed thoroughly and spun down. For every sample, 5 μL of the diluted compound were mixed with 5 μL tracer working solution (e.g. 60 nM tracer 236 in kinase buffer for CDK2/Cyclin A) and 5 μL CDK/Cyclin/Anti-GST-AB-working solution (e.g. 15 nM CDK2/Cyclin A, 1:250 dilution of Anti-GST-AB in kinase buffer) in a well of a small volume 384 well plate (Corning Incorporated, Corning, N.Y., USA; order no. 3673). The tracer concentration was adjusted to its dissociation constant (Kd) for the CDK/Cyclin, which was 30 nM for CDK2/Cyclin A, CDK7/Cyclin H and CDK9/Cyclin T1, 20 nM for CDK8/Cyclin C, and 35 nM for CDK9/Cyclin K. For negative controls, in each well 5 μL of DMSO working solution (3% DMSO diluted in kinase buffer) was mixed with 5 μL Anti-GST-AB working solution (e.g. 1:250 dilution of Anti-GST-AB in kinase buffer for CDK2/Cyclin A) and 5 μL Tracer working solution (e.g. 60 nM Tracer 236 in kinase buffer for CDK2/Cyclin A). For positive controls, in each well 5 μL of DMSO working solution (3% DMSO diluted in kinase buffer) was mixed with 5 μL CDK/Cyclin/Anti-GST-AB-working solution: (e.g. 15 nM CDK2/Cyclin A, 1:250 dilution of Anti-GST-AB in kinase buffer) and 5 μL Tracer working solution (e.g. 60 nM Tracer 236 in kinase buffer for CDK2/Cyclin A). Positive and negative controls were calculated from at least 8 different sample wells. The 384 well plates were mixed in a Teleshaker plate mixer (Beckman Coulter, Brea, Calif., USA) at 2000 rpm for 40 sec, and incubated for 1 h at room temperature before reading. The FRET signal was measured at 340 nm excitation, 665 nm and 615 nm emission (for the kinase tracer and LanthaScreen Eu-AB, respectively) with an Envision spectrophotometer (Perkin Elmer, Waltham, Mass., USA) with […]. Kd values were determined from the sigmoidal dose response curves with the software Quattro Workflow (Quattro GmbH, Munich, Germany).

CDK2/CyclinA [1] = target: T2, CDK2/CyclinA (Homo sapiens, UniProt P24941); assay: LanthaScreen Eu Kinase Binding Assay, CDK2; details: tracer 236, read-out: CDK2 (activity range), Kd
T2 construct: GST; purchased Proqinase
Protocol: as §1, §2

CDK7/CyclinH/MAT1 = target: T3, CDK7/CyclinH/MAT1 (Homo sapiens, UniProt P50613); assay: LanthaScreen Eu Kinase Binding Assay, CDK7; details: tracer 236, read-out: CDK7 (activity range), Kd
T3 construct: His; purchased Carna Biosciences
Protocol: as §1, §2

CDK9/Cyclin K = target: T4, CDK9/Cyclin K (Homo sapiens, UniProt P50750); assay: LanthaScreen Eu Kinase Binding Assay, CDK9/Cyclin K; details: tracer 236, read-out: CDK9/Cyclin K (activity range), Kd
T4 construct: His; purchased Invitrogen
Protocol: as §1, §2

CDK9 = target: T5, CDK9 (Homo sapiens, UniProt P50750); assay: Lance Ultra KinaSelect Assay, CDK9; format: biochemical; details: cyclin partner (T1 or K) not stated; read-out: CDK9 LANCE assay (activity range), IC50
T5 construct: purchased Invitrogen
Protocol: (§3) 2. Measurement of half maximal inhibitory concentration to CDKs This protocol describes how the Lance Ultra KinaSelect Assay was performed to determine half maximal inhibitory concentration (1050) of compounds of general formula (I) and CDK/Cyclin complexes. The principle behind this enzymatic assay is based upon the phosphorylation of the ULight-Peptide Substrat. It is detected by using a specific
(§4) EU-labeled anti-phospho peptide antibody. The binding of the Eu-labeled anti-phospho peptide antibody to the phosphorylated ULight labeled peptide gives rise to a FRET-signal. Binding of an inhibitor to the kinase prevents phosphorylation of the ULight-MBP Substrat, resulting in a loss of FRET.
(§5) The compounds of general formula (I) summarized in Table 5 were diluted from a 10 mM DMSO stock solution 1:10 in a total volume of 15 μL DMSO. This compound predilution was then serial diluted 1:3 over 8 steps in DMSO and briefly spun down. Each compound solution was now diluted 1:20 in Enzymatic Buffer (HEPES: 50 mM, pH: 7.5; MgCl2: 10 mM; EGTA: 1 mM; DTT: 2 mM; Tween-20: 0.01%), mixed thoroughly and spun down. For every sample, 2 μL of the diluted compound were mixed with 6 μL CDK/Cyclin/Substrat solution and 2 μL ATP solution in a well of a small volume 384 well plate (Corning Incorporated, Corning, N.Y., USA; order no. 3673). The CDK/Cyclin was diluted to the appropriate concentration (see Table 3) and the ATP concentration was adjusted to its […] for the CDK/Cyclin, which was 3 μM for CDK2/Cyclin A, 20 μM for CDK1/Cyclin B1, 25 μM for CDK7/Cyclin H and CDK9/Cyclin T1, 55 μM for CDK6/Cyclin D3, 90 μM for CDK4/Cyclin D1 and 125 μM for CDK9/Cyclin K. For negative controls, in each well 2 μL of DMSO solution (1% final DMSO assay concentration) was mixed with 6 μL substrate solution (50 nM ULight MBP final assay concentration) and 2 μL ATP solution (appropriate final concentration see Table 3). For positive controls, in each well 2 μL of DMSO solution (1% final DMSO assay concentration) was mixed with 6 μL CDK/Cyclin/Substrat (appropriate final concentration see Table 3) and 2 μL Tracer ATP solution (appropriate final concentration see Table 3). Positive and negative controls were calculated from at least 8 different sample wells. The 384 well plates were mixed in a Teleshaker plate mixer (Beckman Coulter, Brea, Calif., USA) at 2000 rpm for 40 sec, and incubated for 1 h at room temperature. Before reading, 10 μL the detection buffer (Lance Detection Buffer 1×; EDTA: […]; Eu-Anti-P-MBP: see Table 3) was added. The FRET signal was measured at 340 nm excitation, 665 nm and 615 nm emission (for the kinase tracer and LanthaScreen Eu-AB, respectively) with an Envision spectrophotometer (Perkin Elmer, Waltham, Mass., USA) with 50 μs delay and 300 μs integration time. IC50 values were determined from the sigmoidal dose response curves with the software Quattro Workflow (Quattro GmbH, Munich, Germany).

CDK2/CyclinA [2] = target: T2, CDK2/CyclinA; assay: Lance Ultra KinaSelect Assay, CDK2; format: biochemical; details: ATP 3 μM; read-out: CDK2 LANCE assay (activity range), IC50
Protocol: as §3, §4, §5

T3 sequence (P50613 whole entry): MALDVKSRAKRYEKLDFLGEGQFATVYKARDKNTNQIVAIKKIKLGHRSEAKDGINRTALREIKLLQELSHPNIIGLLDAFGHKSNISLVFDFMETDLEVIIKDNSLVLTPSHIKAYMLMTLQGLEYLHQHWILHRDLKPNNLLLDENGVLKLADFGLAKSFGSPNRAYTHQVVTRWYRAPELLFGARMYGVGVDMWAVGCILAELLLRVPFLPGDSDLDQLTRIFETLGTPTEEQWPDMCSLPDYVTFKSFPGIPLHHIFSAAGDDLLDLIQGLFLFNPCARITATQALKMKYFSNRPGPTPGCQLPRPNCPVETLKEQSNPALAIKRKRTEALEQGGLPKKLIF
T3 sequence (P51946 whole entry partner): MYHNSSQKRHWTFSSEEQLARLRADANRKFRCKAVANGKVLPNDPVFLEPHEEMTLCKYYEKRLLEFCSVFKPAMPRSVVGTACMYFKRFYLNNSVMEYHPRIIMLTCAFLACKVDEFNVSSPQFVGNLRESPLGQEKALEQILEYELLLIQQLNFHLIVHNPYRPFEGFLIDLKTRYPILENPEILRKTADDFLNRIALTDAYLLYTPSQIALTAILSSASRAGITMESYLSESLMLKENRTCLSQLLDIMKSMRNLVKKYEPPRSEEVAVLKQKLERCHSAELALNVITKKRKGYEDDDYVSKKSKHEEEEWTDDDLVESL
T3 sequence (P51948 whole entry partner): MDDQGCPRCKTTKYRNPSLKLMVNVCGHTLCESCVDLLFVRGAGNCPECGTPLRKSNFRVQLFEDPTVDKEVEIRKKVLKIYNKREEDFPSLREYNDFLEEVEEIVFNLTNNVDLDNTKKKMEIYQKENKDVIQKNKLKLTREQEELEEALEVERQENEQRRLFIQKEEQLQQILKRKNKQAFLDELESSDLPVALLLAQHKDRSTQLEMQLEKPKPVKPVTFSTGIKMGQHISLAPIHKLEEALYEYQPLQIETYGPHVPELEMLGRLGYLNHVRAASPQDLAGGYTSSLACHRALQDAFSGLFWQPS
T1 sequence (P50750 whole entry): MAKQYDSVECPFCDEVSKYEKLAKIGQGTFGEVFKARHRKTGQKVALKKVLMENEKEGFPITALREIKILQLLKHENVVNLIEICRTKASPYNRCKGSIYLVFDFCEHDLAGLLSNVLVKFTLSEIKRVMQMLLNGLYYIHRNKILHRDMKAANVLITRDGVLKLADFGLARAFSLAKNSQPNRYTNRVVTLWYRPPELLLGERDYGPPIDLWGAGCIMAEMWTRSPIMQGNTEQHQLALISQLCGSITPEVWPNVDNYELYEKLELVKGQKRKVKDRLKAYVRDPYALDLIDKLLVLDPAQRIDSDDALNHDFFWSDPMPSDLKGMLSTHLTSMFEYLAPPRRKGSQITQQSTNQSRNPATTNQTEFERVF
T1 sequence (O60563 whole entry partner): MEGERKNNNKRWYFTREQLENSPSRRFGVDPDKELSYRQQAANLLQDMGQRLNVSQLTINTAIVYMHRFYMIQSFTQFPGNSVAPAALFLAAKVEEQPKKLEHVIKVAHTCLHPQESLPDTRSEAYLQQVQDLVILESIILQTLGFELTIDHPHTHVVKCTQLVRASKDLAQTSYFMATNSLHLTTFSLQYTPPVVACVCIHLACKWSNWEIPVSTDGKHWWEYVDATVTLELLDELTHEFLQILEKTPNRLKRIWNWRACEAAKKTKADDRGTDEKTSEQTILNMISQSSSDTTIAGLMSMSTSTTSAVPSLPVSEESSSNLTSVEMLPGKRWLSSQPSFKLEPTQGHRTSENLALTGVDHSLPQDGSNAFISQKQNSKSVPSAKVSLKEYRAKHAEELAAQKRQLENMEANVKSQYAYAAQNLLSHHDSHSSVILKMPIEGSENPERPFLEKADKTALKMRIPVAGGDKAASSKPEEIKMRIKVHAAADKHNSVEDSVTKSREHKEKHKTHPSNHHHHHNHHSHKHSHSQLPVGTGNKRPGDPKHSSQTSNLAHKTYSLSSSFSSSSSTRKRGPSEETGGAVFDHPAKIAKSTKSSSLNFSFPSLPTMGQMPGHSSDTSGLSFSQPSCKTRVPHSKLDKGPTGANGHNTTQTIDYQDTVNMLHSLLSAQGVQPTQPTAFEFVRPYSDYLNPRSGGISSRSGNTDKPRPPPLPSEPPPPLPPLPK
T4 sequence (P50750 whole entry): as the sequence (P50750 whole entry) above
T4 sequence (O75909 1-357 isoform O75909-1 partner): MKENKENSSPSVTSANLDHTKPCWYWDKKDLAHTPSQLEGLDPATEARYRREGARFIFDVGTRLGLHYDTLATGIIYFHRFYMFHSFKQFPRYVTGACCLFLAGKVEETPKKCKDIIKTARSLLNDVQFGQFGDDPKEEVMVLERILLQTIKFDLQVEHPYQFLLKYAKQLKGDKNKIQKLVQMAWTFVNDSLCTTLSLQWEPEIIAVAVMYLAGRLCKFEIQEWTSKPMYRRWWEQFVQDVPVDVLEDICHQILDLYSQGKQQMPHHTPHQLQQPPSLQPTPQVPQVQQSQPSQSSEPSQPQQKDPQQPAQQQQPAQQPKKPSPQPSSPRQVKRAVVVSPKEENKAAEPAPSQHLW
T5 sequence (P50750 whole entry): as the sequence (P50750 whole entry) above

| Structure (SMILES) | Kd (CDK9/Cyclin T1) [nM] | Kd (CDK2/CyclinA [1]) [nM] | Kd (CDK7/CyclinH/MAT1) [nM] | Kd (CDK9/Cyclin K) [nM] | IC50 (CDK9) [nM] | IC50 (CDK2/CyclinA [2]) [nM] |
| --- | --- | --- | --- | --- | --- | --- |
| COC[C@H]1CCCCN1c1ncnc(Nc2cccc(CS(N)(=O)=O)c2)n1 [Compound B5, (R)-3-[(4-(2-Methoxymethylpiperidin-1-yl)-1,3,5-triazin-2-yl)amino]-benzenemethanesulfonamide] | 100 to 1000 | > 10000 | > 10000 | 100 to 1000 |  |  |
| NS(=O)(=O)Cc1cccc(Nc2ncnc(N3CCOCC3)n2)c1 [Compound B10, 3-[(4-(Morpholin-4-yl)-1,3,5-triazin-2-yl)amino]benzenemethane sulfonamide] | 100 to 1000 | 1000 to 10000 | 1000 to 10000 | 100 to 1000 |  |  |
| COC[C@@H]1CCCN1c1ncnc(Nc2cccc(CS(N)(=O)=O)c2)n1 [Compound B18, (S)-3-[(4-(2-(Methoxymethyl)pyrrolidin-1-yl)-1,3,5-triazin-2-yl)amino]benzenemethanesulfonamide] | 1000 to 10000 | > 10000 | > 10000 | > 10000 |  |  |
| NS(=O)(=O)Cc1cccc(Nc2ncnc(N3CCC[C@@H]3CO)n2)c1 [Compound B24, (R)-3-[(4-(2-(Hydroxymethyl)pyrrolidin-1-yl)-1,3,5-triazin-2-yl)amino]-benzenemethanesulfonamide] | 1000 to 10000 | > 10000 | > 10000 | 1000 to 10000 |  |  |
| NS(=O)(=O)Cc1cccc(Nc2ncnc(N3CCC[C@H]3CO)n2)c1 [Compound B25, (S)-3-[(4-(2-(Hydroxymethyl)pyrrolidin-1-yl)-1,3,5-triazin-2-yl)amino]-benzenemethanesulfonamide] | 1000 to 10000 | > 10000 | > 10000 | 1000 to 10000 |  |  |
| NS(=O)(=O)Cc1cccc(Nc2ncnc(N3CCC[C@@H]3CN3CCCC3)n2)c1 [Compound B31, (R)-3-[(4-(2-((Pyrrolidin-1-yl)methyl)pyrrolidin-1-yl)-1,3,5-triazin-2-yl)amino]benzenemethanesulfonamide] | 1000 to 10000 | > 10000 | > 10000 | > 10000 |  |  |
| COC[C@H]1CCN1c1ncnc(Nc2cccc(CS(N)(=O)=O)c2)n1 [Compound B35, (R)-3-[(4-(2-(Methoxymethyl)azetidin-1-yl)-1,3,5-triazin-2-yl)amino]-benzenemethanesulfonamide] | 100 to 1000 | > 10000 | > 10000 | 1000 to 10000 |  |  |
| Nc1cccc2c1CCN(c1ncnc(Nc3cccc(CS(N)(=O)=O)c3)n1)C2 [Compound B41, 3-[(4-(5-Amino-3,4-dihydroisoquinolin-2(1H)-yl)-1,3,5-triazin-2-yl)amino]benzenemethanesulfonamide] | 1000 to 10000 |  | > 10000 | 1000 to 10000 |  |  |
| NS(=O)(=O)Cc1cccc(Nc2ncnc(N3CCCc4ccccc43)n2)c1 [Compound B42, 3-[(4-(3,4-Dihydroquinolin-1(2H)-yl)-1,3,5-triazin-2-yl)amino]-benzenemethanesulfonamide] | < 100 | 100 to 1000 | > 10000 | < 100 |  |  |
| NS(=O)(=O)Cc1cccc(Nc2ncnc(N3CCc4sccc4C3)n2)c1 [Compound B43, 3-[(4-(6,7-Dihydrothieno[3,2-c]pyridin-5(4H)-yl)-1,3,5-triazin-2-yl)amino]benzenemethanesulfonamide] | 100 to 1000 |  | 1000 to 10000 | 100 to 1000 |  |  |
| NS(=O)(=O)Cc1cccc(Nc2ncnc(N3CCn4ccnc4C3)n2)c1 [Compound B46, 3-[(4-(5,6-Dihydroimidazo[1,2-a]pyrazin-7(8H)-yl)-1,3,5-triazin-2-yl)amino]benzenemethanesulfonamide] | 1000 to 10000 |  | > 10000 | 1000 to 10000 |  |  |
| NS(=O)(=O)Cc1cccc(Nc2ncnc(N3Cc4cccnc4C3)n2)c1 [Compound B48, 3-[(4-(5H-Pyrrolo[3,4-b]pyridin-6(7H)-yl)-1,3,5-triazin-2-yl)amino]-benzenemethanesulfonamide] | 1000 to 10000 |  | > 10000 | 100 to 1000 |  |  |
| NS(=O)(=O)Cc1cccc(Nc2ncnc(N3Cc4cncnc4C3)n2)c1 [Compound B50, 3-[(4-(5H-Pyrrolo[3,4-d]pyrimidin-6(7H)-yl)-1,3,5-triazin-2-yl)amino]-benzenemethanesulfonamide] | 100 to 1000 |  | > 10000 | 1000 to 10000 |  |  |
| NS(=O)(=O)Cc1cccc(Nc2ncnc(N3CCc4ccccc43)n2)c1 [Compound B52, 3-[(4-(Indolin-1-yl)-1,3,5-triazin-2-yl)amino]-benzenemethane sulfonamide] | < 100 | 100 to 1000 | > 10000 | < 100 |  |  |
| C[C@H]1CCCN1c1ncnc(Nc2cccc(CS(N)(=O)=O)c2)n1 [Compound B53, (S)-3-[(4-(2-Methylpyrrolidin-1-yl)-1,3,5-triazin-2-yl)amino]-benzenemethanesulfonamide] | < 100 | 1000 to 10000 | > 10000 |  | 100 to 1000 | 1000 to 10000 |
| NS(=O)(=O)Cc1cccc(Nc2ncnc(N3CCC[C@@H]3C(F)(F)F)n2)c1 [Compound B54, (R)-3-[(4-(2-(Trifluoromethyl)pyrrolidin-1-yl)-1,3,5-triazin-2-yl)amino]-benzenemethanesulfonamide] | 100 to 1000 | 1000 to 10000 | > 10000 |  | 1000 to 10000 | 1000 to 10000 |
